Reference: PubChem BioAssay AID1963836 (Molecular Pharmacology Branch, DTP, NCI, 2024)

Tested on: 857933-349-R-J2-PDC complex spheroid viability
Test: Anticancer human tumor 857933-349-R-J2-PDC patient-derived colon adenocarcinoma cell line growth inhibition [POLQ]
Conditions: for IC50: curve of first compound; for viability, T/C: stronger effect = lower value
Protocol: Multicellular complex tumor spheroid response to Polymerase (POL) inhibitors (novobiocin, ART-558, RP6685) in combination with a variety of drugs and investigational agents in selected tumor cell lines
The POL inhibitors (novobiocin, ART-558, and RP6685) were evaluated both individually and in combination with standard of care and investigational anticancer small molecules within a complex spheroid model of solid tumors. . Complex spheroids include a stromal component modeled by human endothelial cells (HUVEC) and fibroblasts modeled by human mesenchymal stem cells (MSCs). The concentration ranges selected for each drug and investigational agent were based upon clinically achievable concentrations if the clinical Cmax of the agent was known.
Compounds. The drugs and investigational agents: novobiocin (NSC847541), ART-558 (NSC835418), RP-6685 (NSC848927), peposertib (NSC802822), ceralasertib (NSC780249), elimusertib (NSC800525), camonsertib (NSC841442), AZD-1390 (NSC803789), olaparib (NSC753686), talazoparib (NSC767125), rucaparib (NSC756644), sotorasib (NSC818433), MRTX-1133 (NSC836407), SN-38 (NSC673596), topotecan (NSC609699), epotoside (NSC141540), doxorubicin (NSC123127), gemcitabine (NSC613327), 5-fluorouracil (NSC19893), paclitaxel (NSC125973), vemurafenib (NSC761431), MSA-2 (NSC828583), SN-011 (NSC837082), adavosertib (NSC754352), prexasertib (NSC758257), carboplatin (NSC241240) and oxaliplatin (NSC266046), were obtained from the National Cancer Institute (NCI) Developmental Therapeutics Program Chemical Repository (21). The FDA-approved anticancer drug set is available from the Developmental Therapeutics Program at https://dtp.cancer.gov/organization/dscb/obtaining/. […] The stock solutions were prepared in dimethyl sulfoxide (DMSO, Sigma-Aldrich, St. Louis, MO, cat. D2650), except for the platinum compounds which were prepared in saline (Quality Biological, Gaithersburg, MD, cat. 114-055-101), at 800-fold the tested concentration and stored at -70 degrees C prior to their use. All drugs and investigational agents were tested over a range starting from a high concentration at or near the clinical Cmax and decreasing in half-log increments. If the clinical Cmax for an agent had not been determined, the highest concentration tested was 10 microM, except for SN-38, which was tested at a high concentration of 1 microM.
Cell Culture. All cells were maintained in an incubator at 37 degrees C and 5% CO2 with 95% humidity. The PDC lines were cultured according to standard operating procedures established by the NCI PDMR (https://pdmr.cancer.gov). Table 3 of the manuscript, lists the cell lines along with the number of the three cell types plated to form the mct-spheroids and media for tumor cell growth. After thawing, all PDC lines, except 997537-175-T-J1-PDC and 415267-285-R-J2-PDC, were cultured in Matrigel-coated flasks prepared with a working solution of 1X Ham's F-12 nutrient mix, without supplementation (Thermo Fisher Scientific, cat. 11765054), 100 U/mL penicillin-streptomycin (Thermo Fisher Scientific, cat. 15140122), and 2.5% Matrigel (Corning Inc., Corning, NY, cat. 354248) for the first three passages. The two PDC lines 997537-175-T-J1-PDC and 415267-285-R-J2-PDC were cultured on uncoated flasks. The 857933-349-R-J2-PDC line was cultured in 6C/Colon 1B media containing advanced DMEM/F-12 (Thermo Fisher Scientific, cat. 12634028), 10 mM HEPES (Thermo Fisher Scientific, cat. 15630080), 1X GlutaMAX supplement (Thermo Fisher Scientific, cat. 35050061), 0.1 mg/mL primocin (InvivoGen, San Diego, CA, cat. ant-pm-2), 10% defined fetal bovine serum, heat inactivated (HyClone Laboratories Inc., Logan, UT, cat. SH30070.03HI), 50% L-WRN conditioned media (ATCC, cat. CRL-3276), 1.25 mM N-Acetyl-L-cysteine (Sigma-Aldrich, cat. A9165), 10 mM nicotinamide (Sigma-Aldrich, cat. N0636), 1X B-27 supplement (Thermo Fisher Scientific, cat. 17504044), 1X N-2 supplement (Thermo Fisher Scientific, cat. […]

[1] = second compound 0.0316 µM, first compound 0.0316 µM
[2] = second compound 0.0316 µM, first compound 0.1 µM
[3] = second compound 0.1 µM, first compound 0.0316 µM
[4] = second compound 0.1 µM, first compound 0.1 µM
[5] = second compound 0.316 µM, first compound 0.0316 µM
[6] = second compound 0.316 µM, first compound 0.1 µM
[7] = second compound 1 µM, first compound 0.0316 µM
[8] = second compound 1 µM, first compound 0.1 µM
[9] = second compound 3.16 µM, first compound 0.0316 µM
[10] = second compound 3.16 µM, first compound 0.1 µM
[11] = second compound 10 µM, first compound 0.0316 µM
[12] = second compound 10 µM, first compound 0.1 µM
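Note: spheroids exposed to compounds for seven days before readout.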

CC[C@@]1(O)C(=O)OCc2c1cc1n(c2=O)Cc2cc3c(CN(C)C)c(O)ccc3nc2-1 + Nc1ccc(C#CCN(C(=O)Cc2ncc(C(F)(F)F)cc2C(F)(F)F)c2ccc(F)cc2)nn1
IC50 (second compound 0.0316 µM): 71.7 nM | IC50 (second compound 0.1 µM): > 100 nM | IC50 (second compound 0.316 µM): 77.3 nM | IC50 (second compound 1 µM): 86.9 nM | IC50 (second compound 3.16 µM): 63.8 nM | IC50 (second compound 10 µM): 51.9 nM | viability, T/C (second compound 0.0316 µM, first compound 0.000316 µM): 89.2% | viability, T/C (second compound 0.0316 µM, first compound 0.001 µM): 103% | viability, T/C (second compound 0.0316 µM, first compound 0.00316 µM): 88.6% | viability, T/C (second compound 0.0316 µM, first compound 0.01 µM): 70.7% | viability, T/C [1]: 66.2% | viability, T/C [2]: 44% | viability, T/C (second compound 0.1 µM, first compound 0.000316 µM): 98.9% | viability, T/C (second compound 0.1 µM, first compound 0.001 µM): 95.7% | viability, T/C (second compound 0.1 µM, first compound 0.00316 µM): 94.8% | viability, T/C (second compound 0.1 µM, first compound 0.01 µM): 82.3% | viability, T/C [3]: 71% | viability, T/C [4]: 50.6% | viability, T/C (second compound 0.316 µM, first compound 0.000316 µM): 107% | viability, T/C (second compound 0.316 µM, first compound 0.001 µM): 121% | viability, T/C (second compound 0.316 µM, first compound 0.00316 µM): 87.5% | viability, T/C (second compound 0.316 µM, first compound 0.01 µM): 87% | viability, T/C [5]: 73.3% | viability, T/C [6]: 43% | viability, T/C (second compound 1 µM, first compound 0.000316 µM): 99.5% | viability, T/C (second compound 1 µM, first compound 0.001 µM): 100% | viability, T/C (second compound 1 µM, first compound 0.00316 µM): 97.2% | viability, T/C (second compound 1 µM, first compound 0.01 µM): 94.4% | viability, T/C [7]: 74% | viability, T/C [8]: 46.7% | viability, T/C (second compound 3.16 µM, first compound 0.000316 µM): 92.6% | viability, T/C (second compound 3.16 µM, first compound 0.001 µM): 96% | viability, T/C (second compound 3.16 µM, first compound 0.00316 µM): 92.1% | viability, T/C (second compound 3.16 µM, first compound 0.01 µM): 76.6% | viability, T/C [9]: 61.8% | viability, T/C [10]: 42.9% | viability, T/C (second compound 10 µM, first compound 0.000316 µM): 75.2% | viability, T/C (second compound 10 µM, first compound 0.001 µM): 86.1% | viability, T/C (second compound 10 µM, first compound 0.00316 µM): 92.5% | viability, T/C (second compound 10 µM, first compound 0.01 µM): 76.6% | viability, T/C [11]: 61.3% | viability, T/C [12]: 35.6%

CCc1cc2c(N3CCc4c(cc(Cn5ccnc5)cc4-c4cn(C)nc4C(F)(F)F)C3=O)cc(C)nc2c(OC)n1 + Nc1ccc(C#CCN(C(=O)Cc2ncc(C(F)(F)F)cc2C(F)(F)F)c2ccc(F)cc2)nn1
IC50 (second compound 0.0316 µM): > 10000 nM | IC50 (second compound 0.1 µM): > 10000 nM | IC50 (second compound 0.316 µM): > 10000 nM | IC50 (second compound 1 µM): > 10000 nM | IC50 (second compound 3.16 µM): > 10000 nM | IC50 (second compound 10 µM): > 10000 nM | viability, T/C [1]: 94.9% | viability, T/C [2]: 92.8% | viability, T/C (second compound 0.0316 µM, first compound 0.316 µM): 80.3% | viability, T/C (second compound 0.0316 µM, first compound 1 µM): 79.8% | viability, T/C (second compound 0.0316 µM, first compound 3.16 µM): 67.4% | viability, T/C (second compound 0.0316 µM, first compound 10 µM): 62.8% | viability, T/C [3]: 92% | viability, T/C [4]: 101% | viability, T/C (second compound 0.1 µM, first compound 0.316 µM): 76.2% | viability, T/C (second compound 0.1 µM, first compound 1 µM): 73.5% | viability, T/C (second compound 0.1 µM, first compound 3.16 µM): 77.7% | viability, T/C (second compound 0.1 µM, first compound 10 µM): 55.1% | viability, T/C [5]: 89% | viability, T/C [6]: 86.8% | viability, T/C (second compound 0.316 µM, first compound 0.316 µM): 86.5% | viability, T/C (second compound 0.316 µM, first compound 1 µM): 81% | viability, T/C (second compound 0.316 µM, first compound 3.16 µM): 65.7% | viability, T/C (second compound 0.316 µM, first compound 10 µM): 57.1% | viability, T/C [7]: 95.9% | viability, T/C [8]: 96.9% | viability, T/C (second compound 1 µM, first compound 0.316 µM): 86.8% | viability, T/C (second compound 1 µM, first compound 1 µM): 78.8% | viability, T/C (second compound 1 µM, first compound 3.16 µM): 75.3% | viability, T/C (second compound 1 µM, first compound 10 µM): 51.4% | viability, T/C [9]: 87.8% | viability, T/C [10]: 87% | viability, T/C (second compound 3.16 µM, first compound 0.316 µM): 97.7% | viability, T/C (second compound 3.16 µM, first compound 1 µM): 69.3% | viability, T/C (second compound 3.16 µM, first compound 3.16 µM): 64.3% | viability, T/C (second compound 3.16 µM, first compound 10 µM): 59.5% | viability, T/C [11]: 90.2% | viability, T/C [12]: 78.5% | viability, T/C (second compound 10 µM, first compound 0.316 µM): 75% | viability, T/C (second compound 10 µM, first compound 1 µM): 65.5% | viability, T/C (second compound 10 µM, first compound 3.16 µM): 53.5% | viability, T/C (second compound 10 µM, first compound 10 µM): 53.4%
